Patent publication US9738690B2, “Polyoma virus JC peptides and proteins in vaccination and diagnostic applications” (UNIVERSITAET ZUERICH, priority 2011, dated 2017)
Entries after “also recorded” stand apart in the source; their conditions may differ. Read-outs that look alike come from different tables or passages of the source.

Tests used:
[1] = tested on: brain-derived PHA-expanded cells; assay: Determination of precursor frequency by limiting dilution; assay type: cell-based, human; details: fraction of T cells responding
Procedure: Frequencies of VP1/VLP-specific cells were determined by limiting dilution. 20, 200, 2.000 or 20.000 brain-derived PHA-expanded cells were seeded in quadruplicates in 96-well U-botton microtiter plates with 1×10^5 autologous irradiated PBMC with or without VP1/VLP protein. After 72 hours, proliferation was measured by methyl-^3H-thymidine incorporation. Frequencies were calculated as previously described (Taswell, 1981). Observed data were: r, the number of negatively responding cultures or wells of each dose i; n, the total number of wells per dose i, and X, the number of cells in the dose i. Calculated data was: pi=ri/ni, the fraction of negatively responding cultures of each dose i. The frequency was calculated using the following formula: f=−(ln pi)/λi.

[2] = tested on: brain-derived PHA-expanded cells; assay type: cell-based, human
[3] = tested on: brain-derived VP1/VLP-specific T cell clones; assay: Fine specificity of brain-derived VP1/VLP-specific T cell clones (TCC); assay type: cell-based, human; details: for recognition by brain-derived VP1-specific TCC: each TCC tested against 64 15-mer peptides spanning VP1
Procedure: 2.5×10^4 brain-derived PHA-expanded cells were seeded in 96-well U-botton microtiter plates with 1×10^5 autologous irradiated PBMC with or without VP1/VLP protein. After 48 hours of culture, plates were split into mother and daughter plates. Proliferation was measured in daughter plates by methyl-^3H-thymidine incorporation. VP1/VLP-responsive cultures were identified in mother plates, and IL-2 was added every 3-4 days until day 12. T cell clones (TCC) were established from positive cultures by seeding cells from VP1/VLP-responsive wells under limiting dilution conditions at 0.3 and 1 cell/well in 96-well U-botton microtiter plates, and addition of 2×10^5 allogeneic, irradiated PBMC and 1 μg/ml of PHA-L in complete RPMI. After 24 h, 20 U/ml of human recombinant IL-2 were added. VP1/VLP specificity was then confirmed seeding 2.5×10^4 cells from growing colonies with autologous irradiated PBMC with or without VP1/VLP protein for 72 h. Specific cultures were restimulated every two weeks with 1 μg/ml PHA-L, 20 U/ml hrIL-2 and allogeneic irradiated PBMC, and hrIL2 was added every 3-4 days.
Prior data had shown that CD4+ differentiate into certain T helper phenotypes such as Th1 cells (IFN-gamma producers), Th17 cells secreting IL-17, Th2 cells expressing the signature cytokine IL-4, or T regulatory cells based on the expression of certain transcription factors (Zhu et al., 2010). The differentiation into Th1 or Th2 cells is considered mutually exclusive and controlled by the transcription factors T-bet (Th1) and Gata-3 (Th2) (Zhu et al., 2010). […] VP1/VLP-specific TCC were generated as described in material and methods. Initially 21 VP1/VLP-specific single cell-derived cultures were generated by limiting dilution and characterized for TCRV beta expression, functional phenotype and fine specificity (Table 2). This characterization allowed the identification of 11 presumed different TCC. The number of single cell growing cultures corresponding to each TCC gives an idea about the frequency of each TCC in the brain infiltrate (FIG. 3a). TCC-4 was most abundant and represented by 5 colonies emerging from single growing wells, followed by TCC-2 with 3 single cell growing cultures, TCC-1, -8, -9 and -10 with 2 single cell growing cultures and finally TCC-3, -5, -6, -7 and -11 with only 1 single cell growing culture. […] Taking into account both the number of different TCC recognizing a specific peptide and the frequency of each TCC in the brain infiltrate the immunodominant peptides recognized by VP1 specific brain infiltrating TCC were VP134, VP174, VP1319 and VP1335 confirming the fine specificity obtained using the brain-derived bulk cell population (FIG. 3c). […] For three of the immunodominant peptides (VP134, VP1319 and VP1335) we found TCC with both phenotypes. The T helper phenotype of Th1-2 and Th1 TCC was confirmed my measuring IL-4 and IFN-gamma protein secretion by ELISA and by determining the expression of mRNAs of the transcription factors Gata3 and T-bet. Th1-2 TCC (n=5) secreted IL-4 in addition to IFN-gamma, while IL-4 secretion was barely detectable in Th1 TCC (n=6) (FIG. 6c). Cytokine secretion profiles were not due to stimulation with PHA, since the same stable patterns were observed after specific stimulation with VP1/VLP protein by intracellular cytokine staining or ELISA measurements from culture supernatants. Transcription factor expression confirmed the phenotype of the TCC. […]

[4] = tested on: unmanipulated PBMC; assay type: cell-based, human
[5] = tested on: CSF-derived PHA-expanded cells; assay type: cell-based, human
[6] = tested on: peripheral blood-derived PHA-expanded cells; assay type: cell-based, human
[7] = tested on: VP1-specific T-cells; assay: Flow cytometry characterization of VP1-specific T cells of the vaccinated patient; assay type: cell-based, human
[8] = tested on: JCV; assay: Individual healing attempt: therapeutic vaccination of PML patients with VP1, imiquimod and IL-7; assay type: in vivo, human; details: patient with idiopathic CD4+ lymphopenia and PML, s.c. VP1 + dermal imiquimod + IL-7
Procedure: An individual healing attempt was performed in a patient with idiopathic CD4+ lymphopenia, a rare constitutive immunodeficiency, who developed PML (referred to as “patient Hamburg” in FIG. 11). The patient had been healthy, i.e. not experienced unusual or frequent infections, throughout their life, and in February 2010 was hospitalized with signs of an encephalitis of unknown origin. They were thoroughly worked up, and a diagnosis of suspected EBV-related encephalitis was made. Following transient improvement during antiviral therapy, they deteriorated further albeit slowly. […] In parallel, the inventors found a low CD4+ T cell count (around 300/microliter) as well as a CD4+/CD8+ ratio of 0.5 or less, which are both consistent with the diagnosis of idiopathic CD4+ lymphopenia. In addition, in vitro experiments in the laboratory documented an absent T cell response to JCV virus VP1 in peripheral blood mononuclear cells and an almost complete absence of naïve CD4+ T cells. Following these observations, the inventors reasoned that the patient probably had developed PML based on a pre-existing and probably genetically determined low CD4+ number, which became further accentuated by entirely physiological immune involution, which sets in and increases above 50 years of age.
The vaccination approach in the above patient included the following steps (for timing of vaccinations and tests see scheme below): Subcutaneous injection with the entire recombinant major capsid protein VP1 (provided by the Life Science Inkubator, Bonn) in combination with a dermally applied TLR7 agonist (imiqimod, Aldara; commercially available) and i.v. recombinant IL-7 (Cytheris). The VP1 protein was administered in the form of virus-like particles (VLP), as the recombinantly expressed VP1 protein associated to such particles under the conditions used herein.
Another individual healing attempt was performed in a patient with breast cancer who received chemotherapy and developed acute myeloid leukaemia (AML) as a side effect of the chemotherapy. The patient then received an autologous and allogeneic hematopoietic stem cell transplant as treatment of the AML and subsequently developed acute graft-versus-host disease (grade IV). […] This case is referred to as “patient Zurich” in FIG. 11. Both patients were treated by recombinant IL-7 (s.c.). 2 days later, the first dose of VP1 (s.c. 1 mg, imiquimod cream on the skin) was administered. 2 days after the first dose of VP1, the second dose of rIL-7 was given.
On day 12 after the first IL-7 dose, the patients received a second vaccination with VP1 s.c. plus imiquimod, and in this case simultaneously rIL-7. At week 6, a third dose of VP1/imiquimod and a fourth dose of rIL-7 were administered. […] A stimulation index of >2 is considered a positive response.

[9] = tested on: peripheral blood mononuclear cells (PBMC); assay: 3H-thymidine incorporation assay of patient PBMC with VP1; assay type: cell-based, human
[10] = tested on: JCV; details: cited from earlier work
[11] = recombinant IL-7 together with antiviral drugs, case of CD4+ lymphopenia; cited from earlier work

4: 15-mer JCV Agno peptide starting at amino acid 25; likely SEQ ID NO 1 (image row of Table 1) (AQRILIFLLEFLLDF; JC virus) [Peptide 4]
precursor frequency of peptide-specific T cells [1]: 1/14492

20: 15-mer VP1 peptide starting at amino acid 34; likely SEQ ID NO 2 (image row of Table 1) (VDSITEVECFLTPEM; JC virus) [Peptide 20]
stimulation index (SI), individual JCV peptides ([2]; brain-derived PHA-expanded cells, individual peptides at 10 μM, 72 hours, listed as VP134): strongest response
immunodominance among VP1 specific brain infiltrating TCC ([3]; by number of TCC recognizing the peptide and frequency of each TCC): immunodominant
recognition by brain-derived VP1-specific TCC [3]: recognized by TCC-1 and -2

23: 15-mer VP1 peptide starting at amino acid 54; likely SEQ ID NO 3 (image row of Table 1) [Peptide 23]
recognition by brain-derived VP1-specific TCC [3]: recognized by TCC-3

Tetanus toxoid [TTx, reference compound]
proliferative response [4]: significantly stronger response
stimulation index (SI) [5]: 14
stimulation index (SI) [2]: no response
stimulation index (SI) [6]: 6.5

VP1/VLP: recombinant JCV major capsid protein VP1 forming virus-like particles; VP1 and VLP used interchangeably
stimulation index (SI) ([5]; CSF-derived PHA-expanded cells, VP1/VLP 2 μg/ml, TTx 5 μg/ml, 72 hours): 7
stimulation index (SI) ([2]; brain-derived PHA-expanded T cells, VP1/VLP 2 μg/ml, TTx 5 μg/ml, 72 hours): > 600
cell type proliferating after VP1 stimulus ([7]; 6 weeks after immunization): Only CD4+ cells proliferate
cytokine expression of CD4+ T cells after VP1 stimulation ([7]; antigen day 0, restimulated day 6, intracellular cytokine staining, FACS): produce IFN-gamma after VP1 stimulation
CSF cell counts after vaccination [8]: slightly elevated CSF cell counts
JCV viral load after vaccination [8]: 0
brain MRI imaging after vaccination ([8]; listed as VP1): slight contrast enhancement around the PML lesions
clinical course after vaccination ([8]; listed as VP1): clinical improvement with slight delay; also recorded: clinically improving
immune response against JCV after vaccination (stimulation index, >2 positive) ([9]; patient Hamburg and patient Zurich, PBMC 1×10e5 cells/well with VP1/VLP, 7 days, VP1 s.c. 1 mg + imiquimod + rIL-7): positive immune response against JCV
T cell response to JCV VP1 in PBMC before vaccination ([9]; patient with idiopathic CD4+ lymphopenia and PML, before vaccination): absent
in vitro proliferative response against JCV VP1 after vaccination ([9]; patient with idiopathic CD4+ lymphopenia and PML, s.c. VP1 + dermal imiquimod + IL-7): in vitro proliferative response against JCV VP1 after only two vaccinations
immune response after vaccination with Freund's Complete Adjuvant (FCA) ([10]; with FCA): induces an immune response
immune response after vaccination without adjuvant ([10]; without adjuvant): not immunogenic
stimulation index (SI) ([6]; PHA-expanded PBMC, VP1/VLP 2 μg/ml, TTx 5 μg/ml, 72 hours): negative

VP191: 15-mer VP1 peptide starting at amino acid 91; likely peptide 31, SEQ ID NO 11 (LNEDLTCGNILMWEA; JC virus)
recognition by brain-derived VP1-specific TCC [3]: recognized by TCC-5

VP1143: 15-mer VP1 peptide starting at amino acid 143; likely peptide 43, SEQ ID NO 23 (HFFSVGGEALELQGV; JC virus)
recognition by brain-derived VP1-specific TCC [3]: recognized by TCC-6

B1: recombinant IL-7: recombinant IL-7 (Cytheris) (protein, UniProt P13232 26-177, looked up)
Interleukin-7: DCDIEGKDGKQYESVLMVSIDQLLDSMKEIGSNCLNNEFNFFKRHICDANKEGMFLFRAARKLRQFLKMNSTGDFDLHLLKVSEGTTILLNCTGQVKGRKPAALGEAQPTKSLEENKSLKEQKKLNDLCFLKRLLQEIKTCWNKILMGTKEH
clinical outcome [11]: substantial improvement
